Data from ChEMBL document CHEMBL3885861, “Open TG-GATES”.

Species on record: Rattus norvegicus
Test: Open TG-GATES - Regimen: Single
Format: toxicity, organism-based, Sprague-Dawley
Parameters: regimen Single, gender Male, age 6 weeks
Conditions: in vivo, po, 0 mg/kg, route gavage, dose level Control; for APTT / Bas / Eos / Fbg / Hb / Ht / Lym / MCH / MCHC / MCV / Mono / Neu / PT / Plat / RBC / Ret / WBC: tissue Blood; for KIDNEY_L / KIDNEY_R / KIDNEY_TOTAL: tissue Kidney; for LIVER: tissue Liver; for A/G / ALP / ALT / AST / BUN / CRE / Ca / Cl / DBIL / GLC / IP / K / LDH / Na / PL / RALB / TBIL / TC / TG / TP / gamma-GTP: tissue Plasma

Cc1nnc2n1-c1ccc(Cl)cc1C(c1ccccc1Cl)=NC2 [TRIAZOLAM]
TERMINAL_BW (3 h): 194.1 g
APTT (3 h): 20.7 s
Bas (3 h): 0%
Eos (3 h): 0.8%
Fbg (3 h): 266.4 mg/dL
Hb (3 h): 13.6 g/dL
Ht (3 h): 41.4%
Lym (3 h): 76%
MCH (3 h): 21.2 pg
MCHC (3 h): 32.8%
MCV (3 h): 64.7 fL
Mono (3 h): 3%
Neu (3 h): 19.2%
PT (3 h): 13.6 s
Plat (3 h): 126 x10_4/uL
RBC (3 h): 640.6 x10_4/ul
Ret (3 h): 9.3%
WBC (3 h): 96.6 x10_2/uL
KIDNEY_L (3 h): 0.8 g
KIDNEY_R (3 h): 0.8 g
KIDNEY_TOTAL (3 h): 1.6 g
LIVER (3 h): 8.3 g
A/G (3 h): 0.9
ALP (3 h): 1477.8 IU/L
ALT (3 h): 39.8 IU/L
AST (3 h): 72.4 IU/L
BUN (3 h): 10.6 mg/dL
CRE (3 h): 0.2 mg/dL
Ca (3 h): 11.3 mg/dL
Cl (3 h): 105.6 meq/L
DBIL (3 h): 0.012 mg/dL
GLC (3 h): 179.2 mg/dL
IP (3 h): 9.1 mg/dL
K (3 h): 4.3 meq/L
LDH (3 h): 100 IU/L
Na (3 h): 140.8 meq/L
PL (3 h): 150.2 mg/dL
RALB (3 h): 2.5 g/dL
TBIL (3 h): 0.062 mg/dL
TC (3 h): 87.8 mg/dL
TG (3 h): 47.6 mg/dL
TP (3 h): 5.2 g/dL
gamma-GTP (3 h): 1.2 IU/L
TERMINAL_BW (6 h): 191.8 g
APTT (6 h): 17.3 s
Bas (6 h): 0%
Eos (6 h): 0.8%
Fbg (6 h): 258.8 mg/dL
Hb (6 h): 13.6 g/dL
Ht (6 h): 41.3%
Lym (6 h): 81.4%
MCH (6 h): 21.3 pg
MCHC (6 h): 33%
MCV (6 h): 64.7 fL
Mono (6 h): 2.2%
Neu (6 h): 15%
PT (6 h): 13.5 s
Plat (6 h): 133.4 x10_4/uL
RBC (6 h): 639.4 x10_4/ul
Ret (6 h): 8.5%
WBC (6 h): 82 x10_2/uL
KIDNEY_L (6 h): 0.9 g
KIDNEY_R (6 h): 0.9 g
KIDNEY_TOTAL (6 h): 1.7 g
LIVER (6 h): 7.7 g
A/G (6 h): 0.9
ALP (6 h): 1476.8 IU/L
ALT (6 h): 33.6 IU/L
AST (6 h): 72 IU/L
BUN (6 h): 7.8 mg/dL
CRE (6 h): 0.2 mg/dL
Ca (6 h): 10.7 mg/dL
Cl (6 h): 106.8 meq/L
DBIL (6 h): 0.01 mg/dL
GLC (6 h): 177.8 mg/dL
IP (6 h): 9.4 mg/dL
K (6 h): 4.1 meq/L
LDH (6 h): 104.2 IU/L
Na (6 h): 141.8 meq/L
PL (6 h): 138 mg/dL
RALB (6 h): 2.5 g/dL
TBIL (6 h): 0.068 mg/dL
TC (6 h): 75.4 mg/dL
TG (6 h): 51.6 mg/dL
TP (6 h): 5.1 g/dL
gamma-GTP (6 h): 1 IU/L
TERMINAL_BW (9 h): 192.1 g
APTT (9 h): 17.5 s
Bas (9 h): 0%
Eos (9 h): 0.6%
Fbg (9 h): 271.8 mg/dL
Hb (9 h): 13.2 g/dL
Ht (9 h): 40.4%
Lym (9 h): 77.4%
MCH (9 h): 20.9 pg
MCHC (9 h): 32.7%
MCV (9 h): 64 fL
Mono (9 h): 2%
Neu (9 h): 19.4%
PT (9 h): 13.7 s
Plat (9 h): 112 x10_4/uL
RBC (9 h): 631.8 x10_4/ul
Ret (9 h): 8.8%
WBC (9 h): 96.7 x10_2/uL
KIDNEY_L (9 h): 0.9 g
KIDNEY_R (9 h): 0.9 g
KIDNEY_TOTAL (9 h): 1.7 g
LIVER (9 h): 7.6 g
A/G (9 h): 0.9
ALP (9 h): 1320.2 IU/L
ALT (9 h): 40.6 IU/L
AST (9 h): 75 IU/L
BUN (9 h): 9.2 mg/dL
CRE (9 h): 0.2 mg/dL
Ca (9 h): 10.6 mg/dL
Cl (9 h): 106 meq/L
DBIL (9 h): 0.008 mg/dL
GLC (9 h): 188.4 mg/dL
IP (9 h): 10.4 mg/dL
K (9 h): 4.1 meq/L
LDH (9 h): 79.8 IU/L
Na (9 h): 141.6 meq/L
PL (9 h): 132.4 mg/dL
RALB (9 h): 2.4 g/dL
TBIL (9 h): 0.062 mg/dL
TC (9 h): 71.8 mg/dL
TG (9 h): 40.8 mg/dL
TP (9 h): 5.1 g/dL
gamma-GTP (9 h): 1.2 IU/L
TERMINAL_BW (24 h): 207 g
APTT (24 h): 20.6 s
Bas (24 h): 0%
Eos (24 h): 1%
Fbg (24 h): 279.8 mg/dL
Hb (24 h): 13.2 g/dL
Ht (24 h): 40.3%
Lym (24 h): 78%
MCH (24 h): 21.1 pg
MCHC (24 h): 32.9%
MCV (24 h): 64.1 fL
Mono (24 h): 3%
Neu (24 h): 16.6%
PT (24 h): 13.1 s
Plat (24 h): 116.7 x10_4/uL
RBC (24 h): 628.2 x10_4/ul
Ret (24 h): 8.3%
WBC (24 h): 87 x10_2/uL
KIDNEY_L (24 h): 0.9 g
KIDNEY_R (24 h): 0.9 g
KIDNEY_TOTAL (24 h): 1.8 g
LIVER (24 h): 9.5 g
A/G (24 h): 0.9
ALP (24 h): 1736 IU/L
ALT (24 h): 50 IU/L
AST (24 h): 79.4 IU/L
BUN (24 h): 13.6 mg/dL
CRE (24 h): 0.2 mg/dL
Ca (24 h): 11 mg/dL
Cl (24 h): 105.2 meq/L
DBIL (24 h): 0.01 mg/dL
GLC (24 h): 178.4 mg/dL
IP (24 h): 8.3 mg/dL
K (24 h): 4.2 meq/L
LDH (24 h): 109.8 IU/L
Na (24 h): 141.2 meq/L
PL (24 h): 145.8 mg/dL
RALB (24 h): 2.5 g/dL
TBIL (24 h): 0.054 mg/dL
TC (24 h): 77.4 mg/dL
TG (24 h): 80.8 mg/dL
TP (24 h): 5.3 g/dL
gamma-GTP (24 h): 1 IU/L
